From patent US20240199623A1 (ILDONG PHARMACEUTICAL CO., LTD., priority 2020, published 2024)
≈ marks a conversion by molar mass, not a printed value.

Columns and labels:
[1] = Phosphate-buffered saline (PBS) solubility of compounds; format: physicochemical; details: aqueous buffer, thermodynamic from solid, PBS pH 7.5, 0.5 mg/mL, vortexed 90 min, filtered, LC-MS/MS, read-out: Solubility Range
Protocol: PBS solutions (pH 7.5) were prepared according to the following compositions and stored at 4° C. Test compounds were dissolved in PBS (pH 7.5) at 0.5 mg/mL and vortexed for 90 min. The PBS solution was sequentially filtered through a 0.45, 1.2, […] syringe filter. Concentration of test compounds were determined using LC-MS/MS with appropriate dilution of the samples.

human wild type-CFTR = human wild type-CFTR (Homo sapiens, UniProt P13569); experiment: Cell-based YFP assay; parameters: expressed in transfected cells; host or cells: CHO-K1 (Chinese hamster ovary); details: CHO-K1 cells expressing human wild type-CFTR and YFP-H148Q/I152L; forskolin 20 μM = 100% activity; read-out: Cell-based YFP Assay (EC50) Concentration Range
human wild type-CFTR, sequence (P13569 whole entry): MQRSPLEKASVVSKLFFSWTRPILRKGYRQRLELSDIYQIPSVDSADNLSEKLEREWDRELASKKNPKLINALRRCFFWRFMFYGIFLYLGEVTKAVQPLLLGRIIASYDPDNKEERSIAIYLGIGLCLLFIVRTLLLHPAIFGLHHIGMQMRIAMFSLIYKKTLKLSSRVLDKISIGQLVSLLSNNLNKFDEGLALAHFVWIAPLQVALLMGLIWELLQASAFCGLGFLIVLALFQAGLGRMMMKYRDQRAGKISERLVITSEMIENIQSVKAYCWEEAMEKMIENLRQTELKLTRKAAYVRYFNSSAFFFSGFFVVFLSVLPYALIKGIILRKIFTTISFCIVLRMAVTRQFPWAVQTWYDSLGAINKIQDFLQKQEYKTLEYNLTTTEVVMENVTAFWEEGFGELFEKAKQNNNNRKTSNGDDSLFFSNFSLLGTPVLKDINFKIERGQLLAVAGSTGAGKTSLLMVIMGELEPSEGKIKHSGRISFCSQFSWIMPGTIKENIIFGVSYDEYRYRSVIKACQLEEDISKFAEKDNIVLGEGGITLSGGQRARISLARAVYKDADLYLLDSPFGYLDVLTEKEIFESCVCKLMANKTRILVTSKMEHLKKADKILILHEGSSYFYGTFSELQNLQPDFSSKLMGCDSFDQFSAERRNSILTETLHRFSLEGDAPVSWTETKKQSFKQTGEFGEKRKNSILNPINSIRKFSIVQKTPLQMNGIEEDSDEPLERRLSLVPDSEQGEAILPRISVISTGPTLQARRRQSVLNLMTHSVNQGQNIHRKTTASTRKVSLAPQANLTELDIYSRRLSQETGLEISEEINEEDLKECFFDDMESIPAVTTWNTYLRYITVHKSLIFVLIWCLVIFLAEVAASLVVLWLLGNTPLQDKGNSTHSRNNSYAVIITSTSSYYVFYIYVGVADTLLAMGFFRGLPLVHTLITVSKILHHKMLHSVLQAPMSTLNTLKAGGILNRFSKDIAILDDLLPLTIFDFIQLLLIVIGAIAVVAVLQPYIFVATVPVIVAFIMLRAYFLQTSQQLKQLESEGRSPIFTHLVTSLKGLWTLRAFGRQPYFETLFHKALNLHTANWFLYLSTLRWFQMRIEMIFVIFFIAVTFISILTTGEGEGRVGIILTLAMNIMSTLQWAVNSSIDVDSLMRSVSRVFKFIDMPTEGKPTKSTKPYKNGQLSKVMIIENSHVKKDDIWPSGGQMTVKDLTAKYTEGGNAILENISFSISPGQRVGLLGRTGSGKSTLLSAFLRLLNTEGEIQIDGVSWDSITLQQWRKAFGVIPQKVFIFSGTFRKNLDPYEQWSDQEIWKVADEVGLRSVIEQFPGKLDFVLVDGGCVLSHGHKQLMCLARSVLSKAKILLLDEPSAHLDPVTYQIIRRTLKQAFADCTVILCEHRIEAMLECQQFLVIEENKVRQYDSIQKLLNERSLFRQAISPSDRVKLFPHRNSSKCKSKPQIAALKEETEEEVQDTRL
In short: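 CHO-K1 cells co-expressing human wild-type CFTR and YFP-H148Q/I152L halide sensor, grown 48 h at 37 °C, then in PBS. YFP quenching by I⁻ influx read at 37 °C after adding 140 mM I⁻ solution, sampled every 0.4 s for 14 s. Triplicates averaged; EC50 fitted.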

Compound | solubility at 90 min [1] [µg/mL] | EC50 (human wild type-CFTR) [nM]
COC(=O)C1CN(C(=O)c2ccc(NC(=O)c3cc4nccc(-c5ccc(OC)c(OC)c5)n4n3)cc2)C1 [Compound 65, methyl 1-(4-(7-(3,4-dimethoxyphenyl)pyrazolo[1,5-a]pyrimidine-2-carboxamido)benzoyl) azetidine-3-carboxylate] | < 0.1 | < 200
COc1ccc(-c2ccnc3cc(C(=O)N[C@H]4CC[C@@H](C(=O)N5CCN(C(=O)OC(C)(C)C)CC5)CC4)nn23)cc1OC [Compound 73, tert-butyl 4-((1S,4S)-4-(7-(3,4-dimethoxyphenyl)pyrazolo [1,5-a]pyrimidine-2-carboxamido)cyclohexane-1-carbonyl)piperazine-1-carboxylate] | 0.1 to 10 (≈ 0.169 to 16.9 µM) | 200 to 2000
COc1ccc(-c2ccnc3cc(C(=O)N[C@H]4CC[C@H](C(=O)N5CCOCC5)CC4)nn23)cc1OC [Compound 75, 7-(3,4-dimethoxyphenyl)-N-((1R,4R)-4-(morpholine-4-carbonyl)cyclohexyl) pyrazolo[1,5-a]pyrimidine-2-carboxamide] | > 10 | ≥ 2000
COc1ccc(-c2ccnc3cc(C(=O)N[C@H]4CC[C@H](C(=O)N5CCN(C(=O)OC(C)(C)C)CC5)CC4)nn23)cc1OC [Compound 76, tert-butyl 4-((1R,4R)-4-(7-(3,4-dimethoxyphenyl)pyrazolo [1,5-a]pyrimidine-2-carboxamido)cyclohexane-1-carbonyl)piperazine-1-carboxylate] | 0.1 to 10 (≈ 0.169 to 16.9 µM) | 200 to 2000
COc1ccc(-c2ccnc3cc(C(=O)Nc4ccc(C(=O)N[C@@H](CC(C)C)C(=O)O)cc4)nn23)cc1OC [Compound 85, (4-(7-(3,4-dimethoxyphenyl)pyrazolo[1,5-a]pyrimidine-2-carboxamido)benzoyl)-L-leucine] | > 10 | 200 to 2000
COc1ccc(-c2ccnc3cc(C(=O)NC45CC(C(=O)N6CCN(C(=O)OC(C)(C)C)CC6)(C4)C5)nn23)cc1OC [Compound 92, tert-butyl 4-(3-(7-(3,4-dimethoxyphenyl)pyrazolo [1,5-a]pyrimidine-2-carboxamido)bicyclo [1.1.1]pentane-1-carbonyl)piperazine-1-carboxylate] | < 0.1 | < 200
CCOc1ccc(NC(=O)Nc2cc3nccc(-c4ccc(OC)c(OC)c4)n3n2)cc1 [Compound 109, 1-(7-(3,4-dimethoxyphenyl)pyrazolo[1,5-a]pyrimidin-2-yl)-3-(4-ethoxyphenyl)urea] | < 0.1 | 200 to 2000
COc1ccc(-c2ccnc3cc(C(=O)Nc4ccc(C(=O)OCc5ccccc5)cn4)nn23)cc1OC [Compound 114, benzyl 6-(7-(3,4-dimethoxyphenyl)pyrazolo [1,5-a]pyrimidine-2-carboxamido)nicotinate] | < 0.1 | < 200
COc1ccc(-c2ccnc3cc(C(=O)Nc4ccc(C(=O)OCCCN5CCOCC5)cc4)nn23)cc1OC [Compound 121, 3-morpholinopropyl 4-(7-(3,4-dimethoxyphenyl)pyrazolo [1,5-a]pyrimidine-2-carboxamido)benzoate] | < 0.1 | < 200
COC(=O)c1ccc(NC(=O)c2cc3nccc(-c4ccc(OC)c(OC)c4)n3n2)c(C)c1 [Compound 125, methyl 4-(7-(3,4-dimethoxyphenyl)pyrazolo [1,5-a]pyrimidine-2-carboxamido)-3-methylbenzoate] | < 0.1 | < 200
COc1ccc(-c2ccnc3cc(C(=O)Nc4ccc(C(=O)NCCN5CCOCC5)cc4)nn23)cc1OC [Compound 139, 7-(3,4-dimethoxyphenyl)-N-(4-((2-morpholinoethyl)carbamoyl)phenyl)pyrazolo[1,5-a]pyrimidine-2-carboxamide] | < 0.1 | < 200
COc1ccc(-c2ccnc3cc(C(=O)N4CC[C@H](NC(=O)OC(C)(C)C)C4)nn23)cc1OC [Compound 145, tert-butyl (S)-(1-(7-(3,4-dimethoxyphenyl)pyrazolo [1,5-a]pyrimidine-2-carbonyl)pyrrolidine-3-yl)carbamate] | 0.1 to 10 (≈ 0.214 to 21.4 µM) | 200 to 2000
COc1ccc(-c2ccnc3cc(C(=O)Nc4ccc(C(=O)OCCCN5CCOCC5)c(F)c4)nn23)cc1OC [Compound 163, 3-morpholinopropyl 4-(7-(3,4-dimethoxyphenyl)pyrazolo [1,5-a]pyrimidine-2-carboxamido)-2-fluorobenzoate] | < 0.1 | 200 to 2000
COc1ccc(-c2ccnc3cc(C(=O)Nc4ccc(C(=O)OCCN5CCOCC5)cc4)nn23)cc1OC [Compound 164, 2-morpholinoethyl 4-(7-(3,4-dimethoxyphenyl)pyrazolo [1,5-a]pyrimidine-2-carboxamido)benzoate] | < 0.1 | < 200
COc1ccc(-c2ccnc3cc(C(=O)Nc4ccc(NC(=O)[C@H](C)NC(=O)OC(C)(C)C)cc4)nn23)cc1OC [Compound 281] | < 0.1 | < 200
COc1ccc(-c2ccnc3cc(C(=O)Nc4ccc(NC(=O)[C@@H](NC(=O)OC(C)(C)C)C(C)C)cc4)nn23)cc1OC [Compound 282, tert-butyl (S)-(1-((4-(7-(3,4-dimethoxyphenyl)pyrazolo [1,5-a]pyrimidine-2-carboxamido)phenyl)amino)-3-methyl-1-oxobutan-2-yl)carbamate] | < 0.1 | < 200

Now from value to molecule:

solubility at 90 min [1] [µg/mL] | EC50 (human wild type-CFTR) [nM] | Compound
0.1 to 10 (≈ 0.229 to 22.9 µM) | < 200 | COc1ccc(-c2ccnc3cc(C(=O)Nc4ccc(C(=O)O)cc4F)nn23)cc1OC [Compound 156, 4-(7-(3,4-dimethoxyphenyl)pyrazolo[1,5-a]pyrimidine-2-carboxamido)-3-fluorobenzoic acid]
< 0.1 | < 200 | COc1ccc(-c2ccnc3cc(C(=O)Nc4ccc(C(=O)N5CCOCC5)cc4F)nn23)cc1OC [Compound 157, 7-(3,4-dimethoxyphenyl)-N-(2-fluoro-4-(morpholine-4-carbonyl)phenyl)pyrazolo[1,5-a]pyrimidine-2-carboxamide]
< 0.1 | 200 to 2000 | COc1ccc(-c2ccnc3cc(C(=O)Nc4ccc(C(=O)N5CCOCC5)c(Cl)c4)nn23)cc1OC [Compound 160, N-(3-chloro-4-(morpholine-4-carbonyl)phenyl)-7-(3,4-dimethoxyphenyl) pyrazolo[1,5-a]pyrimidine-2-carboxamide]
0.1 to 10 (≈ 0.187 to 18.7 µM) | 200 to 2000 | COc1ccc(-c2ccnc3cc(C(=O)Nc4ccc(C(=O)N5CCN(C)CC5)c(Cl)c4)nn23)cc1OC [Compound 161, N-(3-chloro-4-(4-methylpiperazine-1-carbonyl)phenyl)-7-(3,4-dimethoxyphenyl)pyrazolo [1,5-a]pyrimidine-2-carboxamide]
< 0.1 | 200 to 2000 | COc1ccc(-c2ccnc3cc(C(=O)Nc4ccc(C(=O)OCCCN5CCN(C)CC5)cc4)nn23)cc1OC [Compound 165, 3-(4-methylpiperazin-1-yl)propyl 4-(7-(3,4-dimethoxyphenyl)pyrazolo[1,5-a]pyrimidine-2-carboxamido)benzoate]
< 0.1 | 200 to 2000 | COc1ccc(-c2ccnc3cc(C(=O)Nc4ccc(C(=O)N5CC6(CN(C)C6)C5)cc4)nn23)cc1OC [Compound 166, 7-(3,4-dimethoxyphenyl)-N-(4-(6-methyl-2,6-diazaspiro[3.3]heptane-2-carbonyl)phenyl)pyrazolo [1,5-a]pyrimidine-2-carboxamide]
< 0.1 | < 200 | COC(=O)c1ccc(NC(=O)c2cc3nccc(-c4ccc(OC)c(OC)c4)n3n2)cc1O [Compound 167, methyl 4-(7-(3,4-dimethoxyphenyl)pyrazolo [1,5-a]pyrimidine-2-carboxamido)-2-hydroxybenzoate]
< 0.1 | 200 to 2000 | COc1ccc(-c2ccnc3cc(C(=O)Nc4ccc(C(=O)O)c(O)c4)nn23)cc1OC [Compound 168, 4-(7-(3,4-dimethoxyphenyl)pyrazolo[1,5-a]pyrimidine-2-carboxamido)-2-hydroxybenzoic acid]
< 0.1 | < 200 | COc1ccc(-c2ccnc3cc(C(=O)Nc4ccc(C(=O)N5CCOCC5)c(O)c4)nn23)cc1OC [Compound 169, 7-(3,4-dimethoxyphenyl)-N-(3-hydroxy-4-(morpholine-4-carbonyl)phenyl)pyrazolo[1,5-a]pyrimidine-2-carboxamide]
0.1 to 10 (≈ 0.194 to 19.4 µM) | < 200 | COc1ccc(-c2ccnc3cc(C(=O)Nc4ccc(C(=O)N5CCN(C)CC5)c(O)c4)nn23)cc1OC [Compound 170, 7-(3,4-dimethoxyphenyl)-N-(3-hydroxy-4-(4-methylpiperazine-1-carbonyl)phenyl)pyrazolo [1,5-a]pyrimidine-2-carboxamide]
> 10 | 200 to 2000 | COc1ccc(-c2ccnc3cc(C(=O)Nc4ccc(C(=O)NCCN5CCN(C)CC5)cc4)nn23)cc1OC [Compound 178, 7-(3,4-dimethoxyphenyl)-N-(4-((2-(4-methylpiperazin-1-yl)ethyl)carbamoyl)phenyl)pyrazolo[1,5-a]pyrimidine-2-carboxamide]
< 0.1 | < 200 | COc1ccc(-c2ccnc3cc(C(=O)Nc4ccc(N5CCN(C)CC5)cn4)nn23)cc1OC [Compound 204, 7-(3,4-dimethoxyphenyl)-N-(5-(4-methylpiperazin-1-yl)pyridin-2-yl)pyrazolo[1,5-a]pyrimidine-2-carboxamide]
